Drawing on patent publication US7601716B2, “Pyridopyrazines and derivatives thereof as ALK and c-Met inhibitors” (Cephalon, Inc., priority 2006, dated 2009), this text covers IC50 for 25 compounds.

Structures can show the parent of a compound that is named as a salt. Some results are limits rather than exact numbers.

Experiment [1] has as its target baculovirus-expressed ALK (Homo sapiens, UniProt Q9UM73). Kind of experiment: ALK Kinase Assay (ELISA/TRF, PLC-γ substrate). Further: 1 µM ATP (Km level). It counts as biochemical. Particulars: read-out: ALK Kinase Inhibition (IC50). In a few lines: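 Read-out: TRF of europium-labeled anti-phosphotyrosine antibody bound to phosphorylated GST–PLC-γ coated at 10 μg/mL. Kinase step used 30 ng/ml ALK, 37° C, 15 minutes. IC50 values fitted by nonlinear sigmoidal dose-response (variable slope).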

For experiment [2], the target named is T1, c-Met (cytoplasmic domain) (Homo sapiens, UniProt P08581).
T1 construct: Reactions were initiated with 30 ng/mL c-Met (cytoplasmic domain, Invitrogen Corporation #PV3143); purchased Invitrogen Corporation PV3143
Kind of experiment: c-Met Kinase Assay (ELISA/TRF, PLC-γ substrate). It counts as biochemical. Particulars: 3 μM ATP (Km level); read-out: c-Met Kinase Inhibition (IC50). As to the method: Example compounds were tested for their ability to inhibit the kinase activity of baculovirus-expressed ALK using a modification of the ELISA protocol reported for trkA in Angeles, T. S. et al., Anal. Biochem. 1996, 236, 49-55, which is incorporated herein by reference in its entirety. Phosphorylation of the substrate, phospholipase C-gamma (PLC-γ) generated as a fusion protein with glutathione S-transferase (GST) as reported in Rotin, D. et al., EMBO J. 1992, 11, 559-567, which is incorporated herein by reference in its entirety, was detected with a europium-labeled anti-phosphotyrosine antibody and measured by time-resolved fluorescence (TRF). Briefly, each 96-well plate was coated with 100 μL/well of 10 μg/mL substrate (phospholipase C-γ) in Tris-buffered saline (TBS). […] The reaction was initiated by adding enzyme (30 ng/ml ALK) and was allowed to proceed at 37° C. for 15 minutes. Detection of the phosphorylated product was performed by adding 100 μl/well of Eu-N1 labeled PT66 antibody (Perkin Elmer # AD0041). Incubation at 37° C. then proceeded for one (1) hour, followed by addition of 100 μL enhancement solution (Wallac #1244-105). The plate was gently agitated and after thirty minutes, the fluorescence of the resulting solution was measured using the EnVision 2100 (or 2102) multilabel plate reader (Perkin Elmer).
Data analysis was performed using ActivityBase (IDBS, Guilford, UK). IC50 values were calculated by plotting percent inhibition versus log10 of the concentration of compound and fitting to the nonlinear regression sigmoidal dose-response (variable slope) equation in XLFit (IDBS, Guilford, UK).
Reactions were initiated with 30 ng/mL c-Met (cytoplasmic domain, Invitrogen Corporation #PV3143).
In general terms: ELISA stands for enzyme-linked immunosorbent assay.

Sequence of baculovirus-expressed ALK (Q9UM73 19-1620): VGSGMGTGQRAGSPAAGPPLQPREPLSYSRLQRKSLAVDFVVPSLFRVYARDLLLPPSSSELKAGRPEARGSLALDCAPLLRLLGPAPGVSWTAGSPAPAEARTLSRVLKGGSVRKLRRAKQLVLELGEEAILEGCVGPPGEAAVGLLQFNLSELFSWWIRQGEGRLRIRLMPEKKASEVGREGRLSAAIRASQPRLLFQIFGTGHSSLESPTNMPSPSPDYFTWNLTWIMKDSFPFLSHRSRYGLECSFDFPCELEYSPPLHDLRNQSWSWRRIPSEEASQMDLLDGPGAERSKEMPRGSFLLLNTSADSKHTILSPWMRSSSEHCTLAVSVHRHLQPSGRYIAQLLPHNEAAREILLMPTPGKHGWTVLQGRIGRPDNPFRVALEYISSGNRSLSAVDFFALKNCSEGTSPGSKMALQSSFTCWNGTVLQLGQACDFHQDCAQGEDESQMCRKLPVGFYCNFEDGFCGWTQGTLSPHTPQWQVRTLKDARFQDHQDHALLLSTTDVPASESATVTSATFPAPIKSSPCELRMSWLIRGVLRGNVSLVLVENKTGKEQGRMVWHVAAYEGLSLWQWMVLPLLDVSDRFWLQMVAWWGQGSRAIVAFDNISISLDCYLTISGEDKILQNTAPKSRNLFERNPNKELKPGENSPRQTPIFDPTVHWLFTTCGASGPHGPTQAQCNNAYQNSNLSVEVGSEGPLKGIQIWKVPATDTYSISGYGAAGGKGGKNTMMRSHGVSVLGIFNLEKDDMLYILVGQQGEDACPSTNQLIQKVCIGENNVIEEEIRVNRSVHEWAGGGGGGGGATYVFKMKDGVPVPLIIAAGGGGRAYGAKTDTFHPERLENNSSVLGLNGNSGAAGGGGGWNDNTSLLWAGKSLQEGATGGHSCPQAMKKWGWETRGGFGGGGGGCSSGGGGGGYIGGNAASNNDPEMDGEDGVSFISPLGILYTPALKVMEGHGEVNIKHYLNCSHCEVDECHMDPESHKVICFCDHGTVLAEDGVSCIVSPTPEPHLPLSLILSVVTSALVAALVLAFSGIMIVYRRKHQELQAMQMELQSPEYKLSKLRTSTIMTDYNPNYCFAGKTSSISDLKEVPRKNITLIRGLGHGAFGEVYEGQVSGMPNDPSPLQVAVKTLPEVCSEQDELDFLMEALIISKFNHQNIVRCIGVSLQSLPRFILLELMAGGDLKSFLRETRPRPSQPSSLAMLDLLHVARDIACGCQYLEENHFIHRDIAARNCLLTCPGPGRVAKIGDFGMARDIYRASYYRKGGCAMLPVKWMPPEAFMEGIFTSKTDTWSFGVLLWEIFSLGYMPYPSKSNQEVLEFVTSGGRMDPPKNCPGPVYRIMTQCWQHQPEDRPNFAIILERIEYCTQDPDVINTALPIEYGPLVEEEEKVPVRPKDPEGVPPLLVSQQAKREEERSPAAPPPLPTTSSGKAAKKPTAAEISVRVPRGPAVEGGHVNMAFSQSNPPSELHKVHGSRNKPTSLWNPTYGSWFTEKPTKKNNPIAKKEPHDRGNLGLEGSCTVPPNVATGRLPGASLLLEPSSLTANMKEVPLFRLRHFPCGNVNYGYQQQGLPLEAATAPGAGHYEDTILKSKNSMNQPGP
T1 sequence (P08581 956-1390 limits assumed): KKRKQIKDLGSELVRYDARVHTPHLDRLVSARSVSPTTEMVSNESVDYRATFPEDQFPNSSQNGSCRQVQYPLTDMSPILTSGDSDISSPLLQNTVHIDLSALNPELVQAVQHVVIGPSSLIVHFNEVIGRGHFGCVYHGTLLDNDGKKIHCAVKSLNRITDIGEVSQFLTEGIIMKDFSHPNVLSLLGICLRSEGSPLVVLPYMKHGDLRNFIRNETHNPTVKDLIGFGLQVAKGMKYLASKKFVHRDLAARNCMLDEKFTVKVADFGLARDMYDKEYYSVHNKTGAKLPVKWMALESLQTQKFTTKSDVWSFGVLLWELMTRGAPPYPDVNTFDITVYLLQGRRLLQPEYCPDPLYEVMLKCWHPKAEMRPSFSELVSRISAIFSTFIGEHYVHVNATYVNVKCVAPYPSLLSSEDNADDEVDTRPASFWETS

Take `NCC#Cc1cnc2c(c1)N(Cc1c(Cl)cccc1Cl)CCN2` [Example 171, 3-[1-(2,6-Dichlorobenzyl)-1,2,3,4-tetrahydropyrido[2,3-b]pyrazin-7-yl]prop-2-ynylamine, trifluoroacetic acid salt]: the IC50 – broadly, the concentration that gives 50% inhibition – in experiment [1] is 10 to 100 µM; in experiment [2], > 100 µM.

On to `O=C(c1ccc(-c2cnc3c(c2)N(Cc2cc(F)ccc2F)CCN3)cc1)N1CCOCC1` [Example 68, {4-[1-(2,5-Difluorobenzyl)-1,2,3,4-tetrahydropyrido[2,3-b]pyrazin-7-yl]phenyl}-morpholin-4-yl-methanone], for which the IC50 fell in the range of 0.1 to 1 µM in experiment [1] and 1 to 10 µM in experiment [2].

With `O=C(c1ccc(-c2cnc3c(c2)N(Cc2ccccc2)C(=O)CN3)cc1)N1CCC(N2CCCC2)CC1` [Example 26, 1-Benzyl-7-[4-(4-(pyrrolidin-1-yl)piperidine-1-carbonyl)phenyl]-3,4-dihydro-1H-pyrido[2,3-b]pyrazin-2-one, trifluoroacetic acid salt], the results for the IC50 in experiment [1] and in experiment [2] were 1 to 10 µM and 10 to 100 µM, respectively.

Turning to `O=C(NCC(c1ccccc1)c1ccccc1)c1cnc2c(c1)N(Cc1cc(Cl)ccc1Cl)CCN2` [Example 226, 1-(2,5-Dichlorobenzyl)-1,2,3,4-tetrahydropyrido[2,3-b]pyrazine-7-carboxylic acid (2,2-diphenylethyl)amide], the IC50 in experiment [1] and in experiment [2] was 10 to 100 µM each time.

On to `CN1CCN(CCNC(=O)c2cnc3c(c2)N(Cc2cc(F)ccc2F)CCN3)CC1` [Example 80, 1-(2,5-Difluorobenzyl)-1,2,3,4-tetrahydropyrido[2,3-b]pyrazine-7-carboxylic acid[2(4-methylpiperazin-1-yl)ethyl]amide], for which the IC50 is 10 to 100 µM in experiment [1] and > 100 µM in experiment [2].

Take `O=C(c1cnc2c(c1)N(Cc1cc(Cl)ccc1Cl)CCN2)N1CCC(n2c(=O)[nH]c3ccccc32)CC1` [Example 209, 1-{1-[1-(2,5-Dichlorobenzyl)-1,2,3,4-tetrahydropyrido[2,3-b]pyrazine-7-carbonyl]piperidin-4-yl}-1,3-dihydrobenzoimidazol-2-one]: the IC50 in experiment [1] lay within 1 to 10 µM; in experiment [2], 10 to 100 µM.

Turning to `O=C(NCCc1ccccn1)c1cnc2c(c1)N(Cc1cc(Cl)ccc1Cl)CCN2` [Example 223, 1-(2,5-Dichlorobenzyl)-1,2,3,4-tetrahydropyrido[2,3-b]pyrazine-7-carboxylic acid (2-pyridin-2-yl-ethyl)amide], the IC50 is 1 to 10 µM in experiment [1] and > 100 µM in experiment [2].

As to `O=C1CNc2ncc(-c3cccc(C(=O)N4CCC[C@H]4CN4CCCC4)c3)cc2N1Cc1ccccc1` [Example 18, S-1-Benzyl-7-[3-(2-[(pyrrolidin-1-yl)methyl]pyrrolidine-1-carbonyl)phenyl]-3,4-dihydro-1H-pyrido[2,3-b]pyrazin-2-one, trifluoroacetic acid salt], the IC50 in experiment [1] fell in the range of 1 to 10 µM; in experiment [2], 10 to 100 µM.

Turning to `O=C(c1cnc2c(c1)N(Cc1cc(Cl)ccc1Cl)CCN2)N1CCN(c2ccccc2)CC1` [Example 206, [1-(2,5-Dichlorobenzyl)-1,2,3,4-tetrahydropyrido[2,3-b]pyrazin-7-yl]-(4-phenylpiperazin-1-yl)-methanone], the IC50 is 10 to 100 µM in experiment [1] and > 100 µM in experiment [2].

With `O=C(c1cnc2c(c1)N(Cc1cc(Cl)ccc1Cl)CCN2)N1CCN(CC2CCCCC2)CC1` [Example 262, [(4-Cyclohexylmethyl)piperazin-1-yl]-[1-(2,5-dichlorobenzyl)-1,2,3,4-tetrahydropyrido[2,3-b]pyrazin-7-yl]methanone], the IC50 in experiment [1] is 10 to 100 µM; in experiment [2], > 100 µM.

As to `O=C(NCc1ccccc1Cl)c1cnc2c(c1)N(Cc1cc(Cl)ccc1Cl)CCN2` [Example 256, 1-(2,5-Dichlorobenzyl)-1,2,3,4-tetrahydropyrido[2,3-b]pyrazine-7-carboxylic acid 2-chloro-benzylamide], the IC50 in experiment [1] is 1 to 10 µM; in experiment [2] it was > 100 µM.

Turning to `O=C(c1cnc2c(c1)N(Cc1cc(Cl)ccc1Cl)CCN2)N1CCC(N2CCOCC2)CC1` [Example 231, [1-(2,5-Dichlorobenzyl)-1,2,3,4-tetrahydropyrido[2,3-b]pyrazin-7-yl]-(4-morpholin-4-yl-piperidin-1-yl)methanone], the IC50 lay in the range of 1 to 10 µM in experiment [1] and 10 to 100 µM in experiment [2].

`FC(F)(F)c1ccc(CN2CCNc3ncc(-c4ccc(N5CCOCC5)nc4)cc32)o1` [Example 292, 7-(6-Morpholin-4-yl-pyridin-3-yl)-1-[5-(trifluoromethyl)furan-2-ylmethyl]-1,2,3,4-tetrahydropyrido[2,3-b]pyrazine]: the IC50 in experiment [1] is 1 to 10 µM; in experiment [2], > 100 µM.

On to `CN(C)CCCCCCNC(=O)c1ccc(-c2cnc3c(c2)N(Cc2c(Cl)cccc2Cl)C(=O)CN3)cc1` [Example 143, 4-[1-(2,6-Dichlorobenzyl)-2-oxo-1,2,3,4-tetrahydropyrido[2,3-b]pyrazin-7-yl]-N-(6-dimethylaminohexyl)benzamide, trifluoroacetic acid salt], for which the IC50 lay in the range of 0.1 to 1 µM in experiment [1] and 1 to 10 µM in experiment [2].

`O=C(c1cnc2c(c1)N(Cc1cc(Cl)ccc1Cl)CCN2)N1CCN(c2ccccc2C(F)(F)F)CC1` [Example 257, [1-(2,5-Dichlorobenzyl)-1,2,3,4-tetrahydropyrido[2,3-b]pyrazin-7-yl]-[4-(2-(trifluoromethyl)phenyl)piperazin-1-yl]methanone]: the IC50 in experiment [1] was 10 to 100 µM; in experiment [2] it was > 100 µM.

`O=C(NC1CCN(Cc2ccccc2)CC1)c1cnc2c(c1)N(Cc1cc(Cl)ccc1Cl)CCN2` [Example 225, 1-(2,5-Dichlorobenzyl)-1,2,3,4-tetrahydropyrido[2,3-b]pyrazine-7-carboxylic acid (1-benzyl-piperidin-4-yl)amide]: the IC50 in experiment [1] fell in the range of 1 to 10 µM; in experiment [2] it was 10 to 100 µM.

For the compound `O=C(O)c1ccc(-c2cnc3c(c2)N(Cc2cccnc2Cl)CCN3)cc1` [Example 302, 4-[1-(2-Chloropyridin-3-ylmethyl)-1,2,3,4-tetrahydropyrido[2,3-b]pyrazin-7-yl]benzoic acid], the IC50 in experiment [1] and in experiment [2] was > 100 µM in each case.

Turning to `CN1CCN(C(=O)c2ccc(-c3cnc4c(c3)N(C(=O)c3ccccc3)CCN4)cc2)CC1` [Example 54, {7-[4-(4-Methylpiperazine-1-carbonyl)phenyl]-3,4-dihydro-2H-pyrido[2,3-b]pyrazin-1-yl}phenylmethanone], the IC50 is > 100 µM in experiment [1] and 10 to 100 µM in experiment [2].

With `O=C(NCCc1ccccc1)c1cnc2c(c1)N(Cc1cc(Cl)ccc1Cl)CCN2` [Example 253, 1-(2,5-Dichlorobenzyl)-1,2,3,4-tetrahydropyrido[2,3-b]pyrazine-7-carboxylic acid phenethyl-amide], the figures for the IC50 in experiment [1] and in experiment [2] were 0.1 to 1 µM and > 100 µM, respectively.

With `Fc1cccc(CN2CCNc3ncc(I)cc32)c1C(F)(F)F` [Example 179, 1-[3-Fluoro-2-(trifluoromethyl)benzyl]-7-iodo-1,2,3,4-tetrahydropyrido[2,3-b]pyrazine], the half-maximal inhibitory concentration (IC50) in experiment [1] and in experiment [2] was > 100 µM each time.

With `O=C1CNc2ncc(-c3ccc(NS(=O)(=O)CCN4CCC[C@H]4CN4CCCC4)cc3)cc2N1Cc1cc(F)ccc1F` [Example 49], the values for the IC50 in experiment [1] and in experiment [2] were 0.1 to 1 µM and 10 to 100 µM, respectively.

With `O=C(NCCN1CCCC1)c1ccc(-c2cnc3c(c2)N(Cc2ccccc2)C(=O)CN3)cc1` [Example 12, 4-(1-Benzyl-2-oxo-1,2,3,4-tetrahydropyrido[2,3-b]pyrazin-7-yl)-N-(2-pyrrolidin-1-yl-ethyl)benzamide, trifluoroacetic acid salt], the IC50 in experiment [1] was in the range of 1 to 10 µM; in experiment [2], 10 to 100 µM.

Take `O=C(NCc1ccc(OC(F)(F)F)cc1)c1cnc2c(c1)N(Cc1cc(Cl)ccc1Cl)CCN2` [Example 230, 1-(2,5-Dichlorobenzyl)-1,2,3,4-tetrahydropyrido[2,3-b]pyrazine-7-carboxylic acid 4-(trifluoromethoxy)benzylamide]: the values for the IC50 in experiment [1] and in experiment [2] were 1 to 10 µM and > 100 µM, respectively.

Take `O=C(c1cc(F)ccc1F)N1CCNc2ncc(I)cc21` [Example 87, (2,5-Difluorophenyl)-(7-iodo-3,4-dihydro-2H-pyrido[2,3-b]pyrazin-1-yl)methanone]: the IC50 in experiment [1] and in experiment [2] was > 100 µM throughout.

Turning to `COc1ncc(-c2cnc3c(c2)N(Cc2cc(Cl)ccc2Cl)CCN3)cn1` [Example 129, 1-(2,5-Dichlorobenzyl)-7-(2-methoxypyrimidin-5-yl)-1,2,3,4-tetrahydropyrido[2,3-b]pyrazine], the IC50 in experiment [1] lay within 0.1 to 1 µM; in experiment [2], 10 to 100 µM.
